Measured values taken from ChEMBL document CHEMBL3885861, “Open TG-GATES”.

Organism: Rattus norvegicus
Experiment: Open TG-GATES - Regimen: Single
Assay type: toxicity, organism-based, Sprague-Dawley
Set-up: regimen Single, gender Male, age 6 weeks
Settings: in vivo, po, 1 mg/kg, route gavage, dose level Low; for APTT / Bas / Eos / Fbg / Hb / Ht / Lym / MCH / MCHC / MCV / Mono / Neu / PT / Plat / RBC / Ret / WBC: tissue Blood; for KIDNEY_L / KIDNEY_R / KIDNEY_TOTAL: tissue Kidney; for LIVER: tissue Liver; for A/G / ALP / ALT / AST / BUN / CRE / Ca / Cl / DBIL / GLC / IP / K / LDH / Na / PL / RALB / TBIL / TC / TG / TP / gamma-GTP: tissue Plasma

Work on CN1C(C(=O)Nc2ccccn2)=C(O)c2sc(Cl)cc2S1(=O)=O [LORNOXICAM] yielded a TERMINAL_BW (3 h) of 222.5 g, an APTT (3 h) of 19.4 s and a Bas (3 h) of 0.6%. It also gave an Eos (3 h) of 1%, a Fbg (3 h) of 219 mg/dL and a Hb (3 h) of 13.5 g/dL. The Ht (3 h) was 39.8%, the Lym (3 h) was 78.2% and the MCH (3 h) was 21.5 pg. For the same compound, the MCHC (3 h) was 33.9%, the MCV (3 h) was 63.4 fL and the Mono (3 h) was 2.6%. The Neu (3 h) was 17.4%, the PT (3 h) was 11.6 s and the Plat (3 h) was 128.4 x10_4/uL. It also gave an RBC (3 h) of 627.6 x10_4/ul, a Ret (3 h) of 7% and a WBC (3 h) of 99.9 x10_2/uL. The KIDNEY_L (3 h) was 1 g, the KIDNEY_R (3 h) was 1 g and the KIDNEY_TOTAL (3 h) was 2 g. The LIVER (3 h) was 10 g, the A/G (3 h) was 1.7 and the ALP (3 h) was 878.4 IU/L. It also gave an ALT (3 h) of 40.6 IU/L, an AST (3 h) of 71.8 IU/L and a BUN (3 h) of 11 mg/dL. It also gave a CRE (3 h) of 0.3 mg/dL, a Ca (3 h) of 10.7 mg/dL and a Cl (3 h) of 102.6 meq/L. For the same compound, the DBIL (3 h) was 0.072 mg/dL, the GLC (3 h) was 194.2 mg/dL and the IP (3 h) was 9.2 mg/dL. The K (3 h) was 3.7 meq/L, the LDH (3 h) was 172 IU/L and the Na (3 h) was 140.4 meq/L. The PL (3 h) was 149.8 mg/dL, the RALB (3 h) was 3.5 g/dL and the TBIL (3 h) was 0.1 mg/dL. The TC (3 h) was 81.8 mg/dL, the TG (3 h) was 64.2 mg/dL and the TP (3 h) was 5.6 g/dL. The gamma-GTP (3 h) was 1.2 IU/L, the TERMINAL_BW (6 h) was 223 g and the APTT (6 h) was 19.9 s. For the same compound, the Bas (6 h) was 0.8%, the Eos (6 h) was 1% and the Fbg (6 h) was 211 mg/dL. It also gave a Hb (6 h) of 13.1 g/dL, a Ht (6 h) of 38.9% and a Lym (6 h) of 74.8%. It also gave an MCH (6 h) of 20.8 pg, an MCHC (6 h) of 33.8% and an MCV (6 h) of 61.7 fL. The Mono (6 h) was 3.2%, the Neu (6 h) was 19.8% and the PT (6 h) was 12.2 s. It also gave a Plat (6 h) of 126.1 x10_4/uL, an RBC (6 h) of 629.8 x10_4/ul and a Ret (6 h) of 6.7%. For the same compound, the WBC (6 h) was 117.6 x10_2/uL, the KIDNEY_L (6 h) was 1 g and the KIDNEY_R (6 h) was 1 g. It also gave a KIDNEY_TOTAL (6 h) of 2 g, an LIVER (6 h) of 9.3 g and an A/G (6 h) of 1.7. It also gave an ALP (6 h) of 908.8 IU/L, an ALT (6 h) of 44.4 IU/L and an AST (6 h) of 79.6 IU/L. It also gave a BUN (6 h) of 11.2 mg/dL, a CRE (6 h) of 0.3 mg/dL and a Ca (6 h) of 10.6 mg/dL. The Cl (6 h) was 104 meq/L, the DBIL (6 h) was 0.074 mg/dL and the GLC (6 h) was 190.2 mg/dL. It also gave an IP (6 h) of 8.6 mg/dL, a K (6 h) of 4 meq/L and an LDH (6 h) of 184.8 IU/L. The Na (6 h) was 140.6 meq/L, the PL (6 h) was 134.8 mg/dL and the RALB (6 h) was 3.5 g/dL. It also gave a TBIL (6 h) of 0.1 mg/dL, a TC (6 h) of 72.2 mg/dL and a TG (6 h) of 61.8 mg/dL. For the same compound, the TP (6 h) was 5.5 g/dL, the gamma-GTP (6 h) was 1.2 IU/L and the TERMINAL_BW (9 h) was 220.2 g. For the same compound, the APTT (9 h) was 19.1 s, the Bas (9 h) was 0.6% and the Eos (9 h) was 0.8%. It also gave a Fbg (9 h) of 220.4 mg/dL, a Hb (9 h) of 13.5 g/dL and a Ht (9 h) of 40.3%. For the same compound, the Lym (9 h) was 75%, the MCH (9 h) was 21.2 pg and the MCHC (9 h) was 33.5%. For the same compound, the MCV (9 h) was 63.3 fL, the Mono (9 h) was 3.4% and the Neu (9 h) was 20.4%. It also gave a PT (9 h) of 12.2 s, a Plat (9 h) of 119.8 x10_4/uL and an RBC (9 h) of 636.4 x10_4/ul. The Ret (9 h) was 7.4%, the WBC (9 h) was 109.6 x10_2/uL and the KIDNEY_L (9 h) was 1 g. For the same compound, the KIDNEY_R (9 h) was 1 g, the KIDNEY_TOTAL (9 h) was 2 g and the LIVER (9 h) was 8.9 g. The A/G (9 h) was 1.6, the ALP (9 h) was 866.2 IU/L and the ALT (9 h) was 37.8 IU/L. It also gave an AST (9 h) of 68.6 IU/L, a BUN (9 h) of 10.6 mg/dL and a CRE (9 h) of 0.3 mg/dL. The Ca (9 h) was 10.5 mg/dL, the Cl (9 h) was 103 meq/L and the DBIL (9 h) was 0.072 mg/dL. The GLC (9 h) was 197.8 mg/dL, the IP (9 h) was 9.1 mg/dL and the K (9 h) was 4.1 meq/L. The LDH (9 h) was 158.6 IU/L, the Na (9 h) was 141 meq/L and the PL (9 h) was 132.8 mg/dL. For the same compound, the RALB (9 h) was 3.4 g/dL, the TBIL (9 h) was 0.1 mg/dL and the TC (9 h) was 73.2 mg/dL. The TG (9 h) was 57.8 mg/dL, the TP (9 h) was 5.5 g/dL and the gamma-GTP (9 h) was 1.2 IU/L. For the same compound, the TERMINAL_BW (24 h) was 238.6 g, the APTT (24 h) was 19.3 s and the Bas (24 h) was 0.4%. It also gave an Eos (24 h) of 0.8%, a Fbg (24 h) of 251 mg/dL and a Hb (24 h) of 13 g/dL. It also gave a Ht (24 h) of 38.9%, a Lym (24 h) of 69.4% and an MCH (24 h) of 21.3 pg. It also gave an MCHC (24 h) of 33.4%, an MCV (24 h) of 63.6 fL and a Mono (24 h) of 3.2%. It also gave a Neu (24 h) of 26%, a PT (24 h) of 11.8 s and a Plat (24 h) of 121.2 x10_4/uL. For the same compound, the RBC (24 h) was 612.8 x10_4/ul, the Ret (24 h) was 6.9% and the WBC (24 h) was 134.5 x10_2/uL. It also gave a KIDNEY_L (24 h) of 1 g, a KIDNEY_R (24 h) of 1 g and a KIDNEY_TOTAL (24 h) of 2 g. The LIVER (24 h) was 11.4 g, the A/G (24 h) was 1.5 and the ALP (24 h) was 822 IU/L. The ALT (24 h) was 39.6 IU/L, the AST (24 h) was 68.8 IU/L and the BUN (24 h) was 14.8 mg/dL. It also gave a CRE (24 h) of 0.4 mg/dL, a Ca (24 h) of 10.8 mg/dL and a Cl (24 h) of 104 meq/L. For the same compound, the DBIL (24 h) was 0.098 mg/dL, the GLC (24 h) was 203.6 mg/dL and the IP (24 h) was 7.6 mg/dL. It also gave a K (24 h) of 4.1 meq/L, an LDH (24 h) of 190.4 IU/L and a Na (24 h) of 141 meq/L. It also gave a PL (24 h) of 145.2 mg/dL, an RALB (24 h) of 3.2 g/dL and a TBIL (24 h) of 0.2 mg/dL. The TC (24 h) was 73.8 mg/dL, the TG (24 h) was 100.2 mg/dL and the TP (24 h) was 5.4 g/dL. It also gave a gamma-GTP (24 h) of 1.4 IU/L.
